Values of other authors as cited in patent US20020081339A1, “Treatment of inoperable tumors by stereotactic injection of microspheres” (priority 2000, published 2002).

Conditions: hydrophilic molecule

SMILES: O=c1[nH]cc(F)c(=O)[nH]1 [5-FU, 5-fluorouracil]
- crossing of the blood-brain barrier: crosses the blood-brain barrier very weakly
